The text below walks through data of patent US20250376432A1, “PROCESS FOR PREPARING MODULATORS OF EUKARYOTIC INITIATION FACTOR 2B” (Denali Therapeutics Inc., priority 2022, published 2025).

Series [1] can be described thus: Dynamic Vapor Sorption (DVS) analysis / hygroscopicity of salt forms. It counts as physicochemical. As to conditions: for Hygroscopicity by DVS analysis / Hygroscopicity: DVS at 25° C.; for Hygroscopicity: Table 4. The protocol:
DVS analysis was carried out using a Surface Measurement System DVS Intrinsic analyzer (SMS, UK). The instrument balance was calibrated with standard weights. Approximately 15-20 mg of sample was loaded into a pan for analysis. The sample was analyzed at 25° C. in 10% relative humidity (RH) steps from 50% to 95% RH (adsorption cycle), from 95% to 0% RH (desorption cycle), and from 0% to 50% RH (adsorption cycle). The movement from one step to the next occurred either after satisfying the equilibrium criterion of 0.002% weight change (dm/dt) or, if the equilibrium criterion was not met, after six hours. […]

Series [2] in a line: Solid form stability (physical by XRPD, chemical by GC purity) under stress storage. It counts as physicochemical. As to conditions: for 25° C./60% RH 2-weeks stability, Purity (%) / 40° C./75% RH 2-weeks stability, Purity (%) / 60° C. 2 weeks stability, Purity (%): GC purity; for 60° C. 2 weeks stability, XRPD: about 20 mg in glass weighing bottles. On the procedure: Standard XRPD patterns were collected using a Bruker D8 Advance diffractometer (Bruker, GER). The X-ray source is a copper (Cu) tube that was operated at 40 kV and 40 mA. Powder samples were prepared on zero-background silicon (Si) holders using manual light pressure to keep the sample surfaces flat. Each sample was analyzed from 3 to 45° 2θ with an effective step size of 0.02° 2θ and 0.08 s exposure time.
Shimadzu GC-2104 (Shimadzu, Japan) was utilized for chemical purity characterization.
Several salts were further investigated for hygroscopicity, purity, and solid form stability. To determine solid form stability, glass weighing bottles containing about 20 mg samples were kept under (1) 60° C., (2) 25° C./60% RH, and (3) 40° C./75% RH conditions, respectively. After 1 week and 2 weeks, respectively, XRPD and GC analyses were conducted to investigate the physical and chemical stability of the selected forms under corresponding conditions.

As to `C1CCC(NC2CCCCC2)CC1.O=C(O)[C@H]1C[C@@H](OC(F)(F)F)C1` [VIa-1a DCHA salt Form A], in series [1], the “Hygroscopicity by DVS analysis” value is “non-hygroscopic”. The “Form conversion after DVS test” value in series [1] (after DVS test) was “no form conversion was detected”.

As to `C1CCC(NC2CCCCC2)CC1.O=C(O)[C@H]1C[C@@H](OC(F)(F)F)C1` [VIa-1a, DCHA salt Form A], in series [1], the Hygroscopicity result is listed as “non-”. Further, in series [2], the “25° C./60% RH 2-weeks stability, XRPD” value is on record as “No change”; the “25° C./60% RH 2-weeks stability, Purity (%)” value was determined as 99.7%; the “40° C./75% RH 2-weeks stability, XRPD” value is listed as “No change”; the “40° C./75% RH 2-weeks stability, Purity (%)” value is reported as 99.3%. For the same compound, the “60° C. 2 weeks stability, XRPD” value in series [2] is “Sublimed”.

As for `N=C(N)NCCC[C@H](N)C(=O)O.O=C(O)[C@H]1C[C@@H](OC(F)(F)F)C1` [VIa-1a, L-Arginine salt Form A], the Hygroscopicity entry in series [1] is on record as “hygroscopic”. Besides, in series [2], the “25° C./60% RH 2-weeks stability, XRPD” value is given as “No change”; the “25° C./60% RH 2-weeks stability, Purity (%)” value is listed as 98.8%; the “40° C./75% RH 2-weeks stability, XRPD” value is reported as “Deliquesced”; the “60° C. 2 weeks stability, Purity (%)” value is listed as 99.2%. For the same compound, the “60° C. 2 weeks stability, XRPD” value in series [2] was “additional peak”.

In the case of `N=C(N)NCCC[C@H](N)C(=O)O.O=C(O)[C@H]1C[C@@H](OC(F)(F)F)C1` [VIa-1a, L-arginine salt Form A], in series [1] (25° C.), the “DVS weight gain at 80% RH” value is on record as “about 28%” and the “DVS weight gain at 95% RH” value was “about 74%”. In series [1], the “Hygroscopicity by DVS analysis” value is given as “high hygroscopicity” and the “Deliquescence with high humidity” value is on record as “deliquesced with high humidity”.

`CC(C)(C)N.O=C(O)[C@H]1C[C@@H](OC(F)(F)F)C1` [VIa-1a, TBA salt Form A]: the Hygroscopicity entry in series [1] is “non-”. Besides, the “60° C. 2 weeks stability, XRPD” value in series [2] is on record as “Sublimed^&”.

For the compound `NC(CO)(CO)CO.O=C(O)[C@H]1C[C@@H](OC(F)(F)F)C1` [VIa-1a, TMA salt Form A], the “DVS weight gain at 0% RH” value in series [1] (0% RH, 25° C.) is reported as “about 7%”. In addition, in series [1] (25° C.), the “DVS weight gain at 80% RH” value is “about 0.1%” and the “DVS weight gain at 95% RH” value was “about 47%”. Also, in series [1], the “Hygroscopicity by DVS analysis” value was “non-hygroscopic”, the Hygroscopicity entry was “non-” and the “Deliquescence with high humidity” value is recorded as “may deliquesce with high humidity (>90% RH)”. Further, in series [2], the “25° C./60% RH 2-weeks stability, XRPD” value is on record as “No change”; the “25° C./60% RH 2-weeks stability, Purity (%)” value was determined as 99.4%; the “40° C./75% RH 2-weeks stability, XRPD” value is “No change”; the “40° C./75% RH 2-weeks stability, Purity (%)” value came out at 99.3%. For the same compound, in series [2], the “60° C. 2 weeks stability, Purity (%)” value is 99.3% and the “60° C. 2 weeks stability, XRPD” value was “No change”.
